Data taken from patent publication US20100143960A1, “CYANINE DERIVATIVES, FLUORESCENT CONJUGATES CONTAINING SAME AND USE THEREOF” (CIS BIO INTERNATIONAL, priority 2007, published 2010).

What was measured:
[1] = Comparison of quantum yields / fluorescence spectrum of cyanine derivatives carrying phosphonate groups; format: physicochemical
Protocol: Fluorescence spectrum: Measurement on a Perkin-Elmer LS50 device, the samples were diluted in phosphate buffer 0.1M pH 7 containing 0.1% BSA (maximum absorbance=0.04 at the excitation wavelength). Excitation: 600 nm (10 nm). Emission (max)=670.5 nm (quantum yield=13%).
The phosphate/phosphonate ester functional groups of the cyanine derivatives according to the invention are hydrolyzed in the cell by cell enzymes to give phosphate/phosphonate functional groups. The quantum yields of the cyanine derivatives carrying phosphonate groups, thus corresponding to the compounds according to the invention as present in the cell after hydrolysis of the ester functional groups, were measured in order to determine if the position of the phosphate/phosphonate ester groups influences the photophysical properties of the compounds.

[2] = test system: stable CHO line expressing SnapTag in the nucleus; assay: Test of cell permeability of benzylguanine conjugates (fluorescence microscopy); format: cell-based; conditions: 5 μM in culture medium, one hour contact, washing, additional hour, microscopic analysis, FIG. 1
Protocol: The cells used result from a stable CHO line expressing SnapTag in the nucleus by virtue of the NLS sequence. The compounds are added to the culture medium (DMEM medium supplemented with 10% of inactivated SVF, 30 min at 60° C.) at a concentration of 5 μM and left in contact with the cells for one hour. After the incubation, three washing operations are carried out with culture medium. An additional hour of incubation solely in the medium is carried out in order to make possible the labeling of the SnapTag by the substrate. Staining of the […] is subsequently carried out with DAPI before the microscopic analysis.
The above images are represented in FIG. 1.

[3] = test system: fusion protein GST-ST26-Flag in CHO-K1 cells; assay: Labeling of an intracellular protein in intact living cells, detected by HTRF measurement; format: cell-based; conditions: 5 μM substrate, 3 h at 20° C.
Excerpt: This example is targeted at showing that the compounds according to the invention comprising a phosphonate ester and conjugated to a substrate (benzylguanine, BG) for a “snaptag” suicide enzyme (ST26) are capable of passing through the cell membrane and of labeling a fusion protein expressed by the cell and comprising the snaptag enzyme ([…]), in contrast to the use of a cyanine not comprising phosphonate esters (DY-647).
The HTRF technique is used to test the intracellular labeling of a protein by the cyanine derivatives according to the invention, on living cells, using the recombinant protein GST-ST26-Flag produced by the cells and labeled indirectly via an anti-GST antibody conjugated with a europium trisbipyridine cryptate (anti-GST-EuTBP).
After culturing, CHO-K1 cells are transfected in the presence of lipofectamine 2000 (0.8 μl per 50 μl of transfection solution, Lipofectamine™ Transfection Reagent, Invitrogen Inc., Carlsbad, Calif.) at the rate of 50 000 cells per well in a black 96-well microplate. The transfected cells are subsequently incubated for 24 h at 37° C., 5% CO2. […]
The fluorescence at 665 nm is measured on an HTRF reader (RUBYstar, BMG Labtechnologies). […]

[4] = aqueous medium, nonsulfonated; cited from earlier work
[5] = in solution; cited from earlier work
[6] = phosphate buffer 0.1M pH 7 containing 0.1% BSA, excitation 600 nm

2-{(1E,3E,5E)-5-[3-(5-Carboxypentyl)-3-methyl-4-ethyl-5-phosphono-1,3-dihydro-2H-indol-2-ylidene]penta-1,3-dienyl}-5-phosphono-3,3-dimethyl-1-(4-ethyl)-3H-indolium [compound 19]
Emission (max) [1, 6]: 670.5 nm
quantum yield [1, 6]: 13%
Wavelength of max. absorption ([1]; phosphonate (hydrolyzed) form): 649 nm
Wavelength of max. emission ([1]; phosphonate (hydrolyzed) form): 670 nm
quantum yield ([1]; phosphonate (hydrolyzed) form): 13%

CCN1/C(=C/C=C/C=C/C2=[N+](CC)c3ccc(S(=O)(=O)[O-])cc3C2(C)C)C(C)(CCCC(=O)NCc2ccc(COc3nc(N)nc4[nH]cnc34)cc2)c2cc(S(=O)(=O)O)ccc21 (stereo not shown) [BG-DY647]
passage through the plasma membrane of the cells (intracellular fluorescence) [2]: have not passed through the plasma membrane
percentage of intracellular labeling (signal at 665 nm passive labeling / total labeling) ([3]; CHO-K1, HTRF with anti-GST-EuTBP, FIG. 2): penetrates poorly into cells
passes through the cell membrane and labels an intracellular protein ([3]; intact CHO-K1 cells): not the case

CN1C(=CC=C2CCCC(C=CC3=[N+](C)c4ccccc4C3(C)C)=C2Cl)C(C)(C)c2ccccc21.[O-][Cl+3]([O-])([O-])[O-] [IR-786]
solubility [4]: less than 10 μM

CC1(C)C(/C=C/C=C/C=C/C=C2\N(CCCCS(=O)(=O)O)c3ccc4ccccc4c3C2(C)C)=[N+](CCCCS(=O)(=O)[O-])c2ccc3ccccc3c21 [indocyanine green]
concentration above which quantum yield falls due to formation of aggregates [5]: greater than 125 μM
